Columns and labels:
[1] = test system: control sera (pooled serum of ten healthy LUMC hospital workers; commercial negative donor pooled serum from the Dutch bloodbank); assay type: binding, human; set-up: Binding of Control serum LUMC to linear peptides / Binding of Control serum Blood-bank to linear peptides / Binding of Control serum LUMC to looped peptides / Binding of Control Serum Blood-Bank to Looped peptides / Binding of Control serum LUMC to linear peptides of the protein M of SARS-CoV Urbani / Binding of Control serum Blood-bank to linear peptides of the protein M of SARS-CoV Urbani / Binding of Control serum LUMC to looped peptides of the protein M of SARS-CoV Urbani / Binding of Control Serum Blood-Bank to Looped peptides of the protein M of SARS-CoV Urbani: unit not given here
[2] = test system: rabbit serum obtained by immunizing a rabbit with the SARS-CoV strain Frankfurt 1; assay type: binding; set-up: Binding of a rabbit serum to linear peptides / Binding of a rabbit serum to looped peptides / Rabbit serum linear peptides / Rabbit serum looped peptides / Binding of a rabbit serum to linear peptides of protein N of SARS-CoV Urbani (Rabbit serum linear peptides) / Binding of a rabbit serum to looped/cyclic peptides of protein N of SARS-CoV Urbani (Rabbit serum looped peptides): unit not given here
[3] = test system: recombinant human anti-SARS-CoV antibody 03-018; assay type: binding; set-up: Binding of antibody 03-018 to linear peptides of the N protein of SARS-CoV Urbani / Binding of antibody 03-018 to looped/cyclic peptides of the N protein of SARS-CoV Urbani: unit not given here
[4] = test system: antibodies in sera from SARS patients (sera 1a, 1b, 2, 6, 37, 62, London, SARS-yellow, SARS-green); assay type: binding, human; set-up: Binding of serum 6 to linear peptides of protein X1 of SARS-CoV Urbani / Binding of serum 37 to linear peptides of protein X1 of SARS-CoV Urbani / Binding of serum 6 to looped/cyclic peptide (PEPSCAN-ELISA) / Binding of serum 37 to looped/cyclic peptide (PEPSCAN-ELISA) / Binding of serum 37 to looped/cyclic peptides of protein X1 of SARS-CoV Urbani / Binding of serum 6 to linear peptides of protein X2 / Binding of serum 37 to linear peptides of protein X2 / Binding of serum 37 to looped/cyclic peptides of protein X2 of SARS-CoV Urbani / Binding of serum 6 to linear peptides of protein M of SARS-CoV Urbani / Binding of serum 37 to linear peptides of protein M of SARS-CoV Urbani / Binding of serum 6 to looped/cyclic peptides of protein M of SARS-CoV Urbani / Binding of serum 37 to looped/cyclic peptides of protein M of SARS-CoV Urbani / Binding of serum 6 to linear peptides of protein X3 of SARS-CoV Urbani / Binding of serum 37 to linear peptides of protein X3 of SARS-CoV Urbani / Binding of serum 37 to looped/cyclic peptides of protein X3 of SARS-CoV Urbani / Binding of serum 6 to linear peptides of protein X4 of SARS-CoV Urbani / Binding of serum 37 to linear peptides of protein X4 of SARS-CoV Urbani / Binding of serum 37 to looped/cyclic peptides of protein X4 of SARS-CoV Urbani / Binding of serum 6 to linear peptides of protein X5 of SARS-CoV Urbani / Binding of serum 37 to linear peptides of protein X5 of SARS-CoV Urbani / Binding of serum 37 to looped/cyclic peptides of protein X5 of SARS-CoV Urbani / Binding of serum 6 to linear peptides of protein N of SARS-CoV Urbani / Binding of serum 37 to linear peptides of protein N of SARS-CoV Urbani / Binding of serum 6 to linear peptide (PEPSCAN-ELISA) / Binding of serum 1a to looped/cyclic peptides of protein N of SARS-CoV Urbani / Binding of serum 1b to looped/cyclic peptides of protein N of SARS-CoV Urbani / Binding of serum 2 to looped/cyclic peptides of protein N of SARS-CoV Urbani / Binding of serum 6 to looped/cyclic peptides of protein N of SARS-CoV Urbani / Binding of serum 37 to looped/cyclic peptides of protein N of SARS-CoV Urbani / Binding of serum 62 to looped/cyclic peptides of protein N of SARS-CoV Urbani / Binding of serum London to looped/cyclic peptides of protein N of SARS-CoV Urbani / Binding of serum SARS-green to looped/cyclic peptides of protein N of SARS-CoV Urbani: unit not given here

Sequence: QQQGQTVTKKSAAEA
- Binding of Control Serum Blood-Bank to Looped peptides [1]: 0.6
- Binding of Control serum Blood-bank to linear peptides [1]: 0.6
- Binding of Control serum LUMC to linear peptides [1]: 0.5
- Binding of Control serum LUMC to looped peptides [1]: 0.6
- Binding of a rabbit serum to linear peptides of protein N of SARS-CoV Urbani (Rabbit serum linear peptides) [2]: 0.0
- Binding of a rabbit serum to looped/cyclic peptides of protein N of SARS-CoV Urbani (Rabbit serum looped peptides) [2]: 0.0
- Binding of antibody 03-018 to linear peptides of the N protein of SARS-CoV Urbani [3]: 0.1
- Binding of antibody 03-018 to looped/cyclic peptides of the N protein of SARS-CoV Urbani [3]: 0.2
- Binding of serum 1a to linear peptide (PEPSCAN-ELISA) [4]: 0.6
- Binding of serum 1a to looped/cyclic peptides of protein N of SARS-CoV Urbani [4]: 0.5
- Binding of serum 1b to linear peptide (PEPSCAN-ELISA) [4]: 0.2
- Binding of serum 1b to looped/cyclic peptides of protein N of SARS-CoV Urbani [4]: 0.3
- Binding of serum 2 to linear peptide (PEPSCAN-ELISA) [4]: 0.5
- Binding of serum 2 to looped/cyclic peptides of protein N of SARS-CoV Urbani [4]: 0.7
- Binding of serum 6 to linear peptide (PEPSCAN-ELISA) [4]: 0.2
- Binding of serum 6 to looped/cyclic peptides of protein N of SARS-CoV Urbani [4]: 0.5
- Binding of serum 37 to linear peptide (PEPSCAN-ELISA) [4]: 0.5
- Binding of serum 37 to looped/cyclic peptides of protein N of SARS-CoV Urbani [4]: 0.6
- Binding of serum 62 to linear peptide (PEPSCAN-ELISA) [4]: 0.5
- Binding of serum 62 to looped/cyclic peptides of protein N of SARS-CoV Urbani [4]: 0.7
- Binding of serum London to linear peptide (PEPSCAN-ELISA) [4]: 0.6
- Binding of serum London to looped/cyclic peptides of protein N of SARS-CoV Urbani [4]: 0.6
- Binding of serum SARS-green to linear peptide (PEPSCAN-ELISA) [4]: 0.3
- Binding of serum SARS-green to looped/cyclic peptides of protein N of SARS-CoV Urbani [4]: 0.9
- Binding of serum SARS-yellow to linear peptide (PEPSCAN-ELISA) [4]: 0.6
- Binding of serum SARS-yellow to looped/cyclic peptides of protein N of SARS-CoV Urbani [4]: 0.6

Sequence: QQQQGQTVTKKSAAE
- Binding of Control Serum Blood-Bank to Looped peptides [1]: 0.2
- Binding of Control serum Blood-bank to linear peptides [1]: 0.6
- Binding of Control serum LUMC to linear peptides [1]: 0.6
- Binding of Control serum LUMC to looped peptides [1]: 0.2
- Binding of a rabbit serum to linear peptides of protein N of SARS-CoV Urbani (Rabbit serum linear peptides) [2]: 0.3
- Binding of a rabbit serum to looped/cyclic peptides of protein N of SARS-CoV Urbani (Rabbit serum looped peptides) [2]: 0.0
- Binding of antibody 03-018 to linear peptides of the N protein of SARS-CoV Urbani [3]: 0.1
- Binding of antibody 03-018 to looped/cyclic peptides of the N protein of SARS-CoV Urbani [3]: 0.2
- Binding of serum 1a to linear peptide (PEPSCAN-ELISA) [4]: 0.8
- Binding of serum 1a to looped/cyclic peptides of protein N of SARS-CoV Urbani [4]: 0.3
- Binding of serum 1b to linear peptide (PEPSCAN-ELISA) [4]: 0.3
- Binding of serum 1b to looped/cyclic peptides of protein N of SARS-CoV Urbani [4]: 0.1
- Binding of serum 2 to linear peptide (PEPSCAN-ELISA) [4]: 0.7
- Binding of serum 2 to looped/cyclic peptides of protein N of SARS-CoV Urbani [4]: 0.3
- Binding of serum 6 to linear peptide (PEPSCAN-ELISA) [4]: 0.2
- Binding of serum 6 to looped/cyclic peptides of protein N of SARS-CoV Urbani [4]: 0.1
- Binding of serum 37 to linear peptide (PEPSCAN-ELISA) [4]: 0.7
- Binding of serum 37 to looped/cyclic peptides of protein N of SARS-CoV Urbani [4]: 0.3
- Binding of serum 62 to linear peptide (PEPSCAN-ELISA) [4]: 0.7
- Binding of serum 62 to looped/cyclic peptides of protein N of SARS-CoV Urbani [4]: 0.2
- Binding of serum London to linear peptide (PEPSCAN-ELISA) [4]: 0.7
- Binding of serum London to looped/cyclic peptides of protein N of SARS-CoV Urbani [4]: 0.2
- Binding of serum SARS-green to linear peptide (PEPSCAN-ELISA) [4]: 0.3
- Binding of serum SARS-green to looped/cyclic peptides of protein N of SARS-CoV Urbani [4]: 0.0
- Binding of serum SARS-yellow to linear peptide (PEPSCAN-ELISA) [4]: 0.9
- Binding of serum SARS-yellow to looped/cyclic peptides of protein N of SARS-CoV Urbani [4]: 0.1

Sequence: QRQKKQPTVTLLPAA
- Control Serum Blood-Bank Looped peptides [1]: 1.1
- Control serum Blood-bank linear peptides [1]: 0.8
- Control serum LUMC linear peptides [1]: 0.7
- Control serum LUMC looped peptides [1]: 0.8
- Binding of a rabbit serum to linear peptides of protein N of SARS-CoV Urbani (Rabbit serum linear peptides) [2]: 0.2
- Binding of a rabbit serum to looped/cyclic peptides of protein N of SARS-CoV Urbani (Rabbit serum looped peptides) [2]: 0.7
- Binding of antibody 03-018 to linear peptides of the N protein of SARS-CoV Urbani [3]: 0.1
- Binding of antibody 03-018 to looped/cyclic peptides of the N protein of SARS-CoV Urbani [3]: 0.3
- Binding of serum 1a to linear peptides of protein N of SARS-CoV Urbani [4]: 0.3
- Binding of serum 1b to linear peptides of protein N of SARS-CoV Urbani [4]: 0.1
- Binding of serum 2 to linear peptides of protein N of SARS-CoV Urbani [4]: 0.3
- Binding of serum 6 to linear peptides of protein N of SARS-CoV Urbani [4]: 0.2
- Binding of serum 37 to linear peptides of protein N of SARS-CoV Urbani [4]: 0.7
- Binding of serum 62 to linear peptides of protein N of SARS-CoV Urbani [4]: 0.8
- Binding of serum London to linear peptides of protein N of SARS-CoV Urbani [4]: 0.6
- Binding of serum SARS-green to linear peptides of protein N of SARS-CoV Urbani [4]: 0.7
- Binding of serum SARS-yellow to linear peptides of protein N of SARS-CoV Urbani [4]: 0.6
- Recognition of the peptide by sera of SARS-CoV infected individuals, and form (linear, looped/cyclic) in which it is recognized [4]: recognized in looped/cyclic form

From patent publication US20070128217A1 (priority 2003, published 2007)
